PubChem BioAssay (NCI)
Where “and” joins values, the source holds several entries; their conditions need not be identical. Identical values can stand only once.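 In this assay, cells in 96-well plates receive the compound at five concentrations for 48 hours. Endpoints are linearly interpolated between the surrounding concentrations. Here, GI50 denotes the concentration required for 50% inhibition of growth. TGI marks complete inhibition of growth.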

Key:
Experiment in all cases: NCI tumour cell line growth inhibition, 48 h
SK-OV-3 ovarian = system: SK-OV-3 ovarian
OVCAR-3 ovarian = system: OVCAR-3 ovarian
LOX IMVI melanoma = system: LOX IMVI melanoma
CAKI-1 renal = system: CAKI-1 renal
OVCAR-8 ovarian = system: OVCAR-8 ovarian
NCI-H23 lung = system: NCI-H23 lung
SK-MEL-28 melanoma = system: SK-MEL-28 melanoma
SR leukemia = system: SR leukemia
UO-31 renal = system: UO-31 renal
SNB-19 CNS = system: SNB-19 CNS

SMILES | GI50 (SK-OV-3 ovarian) | TGI (SK-OV-3 ovarian) | GI50 (OVCAR-3 ovarian) | TGI (OVCAR-3 ovarian) | GI50 (LOX IMVI melanoma) | TGI (LOX IMVI melanoma) | GI50 (CAKI-1 renal) | TGI (CAKI-1 renal) | GI50 (OVCAR-8 ovarian) | TGI (OVCAR-8 ovarian) | GI50 (NCI-H23 lung) | TGI (NCI-H23 lung) | GI50 (SK-MEL-28 melanoma) | TGI (SK-MEL-28 melanoma) | GI50 (SR leukemia) | TGI (SR leukemia) | GI50 (UO-31 renal) | TGI (UO-31 renal) | GI50 (SNB-19 CNS) | TGI (SNB-19 CNS)
O=C(N/N=C/c1ccc(F)cc1)c1[nH]c2ccc(I)cc2c1-c1ccccc1 | 0.464 µM | 10.7 µM | 0.229 µM | 0.531 µM | 0.767 µM | > 100 µM | 0.399 µM | 56.1 µM | 0.971 µM | > 51.2 µM | 0.551 µM | > 25.1 µM | 0.494 µM | 55.4 µM | 0.297 µM | 3.37 µM | 1.98 µM | 52.6 µM | 2.31 µM | > 82.1 µM
Nc1ncnc2c1ncn2C1OC(C(=O)O)C(O)C1O (stereo unspecified) | – | > 100 µM | – | > 100 µM | – | > 100 µM | – | > 100 µM | – | > 100 µM | – | > 100 µM | – | > 100 µM | – | > 100 µM | – | > 100 µM | – | > 100 µM
CCC(=O)N1C/C(=C/c2ccc(OC)cc2)C(=O)/C(=C/c2ccc(OC)cc2)C1 | 4.61 µM | 27.9 µM | 1.82 µM | 3.73 µM | 0.95 µM | 2.28 µM | 2.74 µM | 9.73 µM | 2.86 µM | > 100 µM | 2.26 µM | 5.39 µM | 1.85 µM | 3.74 µM | 0.382 µM | > 100 µM | 1.34 µM | 2.71 µM | 2.93 µM | 19.3 µM
c1cncc(C2c3[nH]c4ccccc4c3CCN2CCN2CCCCC2)c1 (stereo unspecified) | – | > 100 µM | – | > 100 µM | – | > 100 µM | – | > 100 µM | – | > 100 µM | – | > 100 µM | – | > 100 µM | – | > 100 µM | – | > 100 µM | – | > 100 µM
CC[C@@]1(OC(=O)CCC(=O)O)C(=O)OCc2c1cc1n(c2=O)Cc2cc3ccccc3nc2-1 | – | 14.2 µM | – | 3.88 µM | – | 0.596 µM | – | 0.612 µM | – | 9.38 µM | – | 0.838 µM | – | > 46.1 µM | – | 0.03 µM | – | 0.493 µM | – | > 43 µM
CCc1ccc(C2=C(O)C(=O)C(c3ccc(CC)cc3)=C(O)C2=O)cc1 | 2.05 µM | 5.66 µM | 1.57 µM | 3.13 µM | 2.84 µM | 12.1 µM | 1.92 µM | 5.27 µM | 2.95 µM | 10.2 µM | 1.96 µM | 5.23 µM | 2.65 µM | 8.89 µM | 1.91 µM | 5.07 µM | 1.73 µM | 4.91 µM | 2.17 µM | 8.03 µM
O=c1c(OC/C(=N/O)c2ccccc2)c(-c2ccccc2)oc2ccccc12 | 20.3 µM | > 50 µM | 8.06 µM | 20.1 µM | 10.5 µM | 19.5 µM | 9.52 µM | 40.8 µM | 21.7 µM | > 50 µM | 18.1 µM | > 50 µM | 16.6 µM | 28.9 µM | 13.9 µM | > 50 µM | 19.2 µM | > 50 µM | 15.9 µM | > 50 µM
C=C(CNCCO)[C@@H]1CC[C@]2(CO)CC[C@]3(C)[C@H](CC[C@@H]4[C@@]5(C)CCC(NCCc6ccc(O)cc6)C(C)(C)[C@@H]5CC[C@]43C)[C@@H]12 (stereo partly specified) | 1.7 µM | 3.23 µM | 1.82 µM | 3.73 µM | 1.18 µM | 2.63 µM | 1.62 µM | 3.33 µM | 1.46 µM | 2.8 µM | 1.77 µM | 3.45 µM | 1.6 µM | 3.1 µM | 0.25 µM | 0.802 µM | 1.51 µM | 2.94 µM | 1.6 µM | 3.03 µM
CC(=O)O/C(C)=C\C(=O)O/N=C(\N)c1ccc(C)cc1 | – | > 100 µM | – | > 100 µM | – | > 100 µM | – | > 100 µM | – | > 100 µM | – | 48.4 µM | – | 42.7 µM | – | > 100 µM | – | > 100 µM | – | > 100 µM
O=Nc1c2cccnc2n2nnc3ccc(Cl)cc3c12 | 5.37 µM | 20.4 µM | 0.447 µM | 1.45 µM | 1.35 µM | 6.19 µM | 0.436 µM | 2.35 µM | 3.74 µM | 11.2 µM | 2.09 µM | 10.2 µM | 2.39 µM | 5.36 µM | 0.0458 µM | 2.99 µM | 1.05 µM | 9.51 µM | 5.5 µM | 22 µM
COC(=O)c1ccc2c(c1)c1c(C)c3cnccc3c(C)c1n2C | 0.107 µM | 0.527 µM | 0.0652 µM | 1.15 µM | 0.0391 µM | 0.194 µM | 0.0354 µM | 0.61 µM | 0.0595 µM | 3.79 µM | 0.053 µM | 0.328 µM | 0.0951 µM | 0.444 µM | 0.0372 µM | 2.04 µM | 0.0369 µM | 0.821 µM | 0.0509 µM | 7.65 µM
CC(O)C(NC(=O)C(CS)NC(=O)C(CO)NC(=O)C(CCCCN)NC(=O)C(Cc1c[nH]c2ccccc12)NC(=O)C(Cc1ccc(O)cc1)NC(=O)C(CS)NC(=O)C(N)Cc1ccccc1)C(N)=O (stereo unspecified) | – | > 25 µM | 21.3 µM | > 25 µM and 50 µM | – | > 25 µM | 1.08 µM | > 25 µM and 29.6 µM | – | > 25 µM and 81.5 µM | – | > 25 µM and 68 µM | – | 76.9 µM | 29.7 µM | > 25 µM and 86.5 µM | – | > 25 µM | – | 63.4 µM
OC1CCC(Oc2cccc3cnc(Nc4ccc5nc[nH]c5c4)nc23)CC1 (stereo unspecified) | 3.35 µM | 47.8 µM | 0.423 µM | 19.4 µM | 0.231 µM | 11.4 µM | 0.497 µM | 21.5 µM | 0.521 µM | 43 µM | 0.21 µM | 1.63 µM | 0.791 µM | 6.83 µM | 0.143 µM | 0.671 µM | 0.227 µM | 1.88 µM | 0.407 µM | 49.6 µM
N#CC1C(N)=NNC1c1ccc(-c2ccc(-c3nc4ccccc4o3)cc2)o1 (stereo unspecified) | 37.4 µM | > 100 µM | 2.12 µM | 13.2 µM | 23.3 µM | 64.7 µM | 14.8 µM | 44.2 µM | 15.3 µM | 88 µM | – | – | 26 µM | > 100 µM | > 100 µM | > 100 µM | 30.1 µM | > 100 µM | > 100 µM | > 100 µM
